Assays:
[1] = target: human recombinant BACE1 (Homo sapiens (Human), UniProt P56817); assay: In vitro enzymatic BACE1 FRET assay; assay type: biochemical; settings: read-out: IC50 IP (μM) BACE1 enzyme
Summary of the method: (§1)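 Ni-NTA-purified recombinant protease incubated with compound; reaction started with 50 nM FRET peptide substrate (fluorophore/quencher flanking the BACE cleavage site) and run 1 h. Stopped with Tris buffer raising pH to neutral; fluorescence read at ex 488/em 590 nm.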

[2] = target: human recombinant BACE2 (Homo sapiens (Human), UniProt Q9Y5Z0); assay: In vitro enzymatic BACE2 FRET assay; assay type: biochemical; settings: read-out: IC50 IP (μM) BACE2 enzyme
Summary of the method: as §1

[3] = tested on: Aβ40 in conditioned medium of cells stably expressing Amyloid Precursor Protein (APP); assay: In vitro BACE-1 cell-based assay (Aβ40 sandwich ELISA); settings: read-out: IC50 IP (μM) BACE1 cell
Summary of the method: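 APP-expressing cells treated 24 h at 37 °C with compound in 10-point dose response (top 100 μM or 10 μM, 0.1% DMSO final). Secreted Aβ40 in conditioned medium quantified by sandwich ELISA (pAb40 capture, biotinylated 6E10 detection, time-resolved europium fluorescence); IC50 from percent inhibition versus concentration.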

[4] = target: Recombinant Cat D (Homo sapiens (Human), UniProt P07339); assay: In vitro enzymatic Cathepsin D (Cat D) FRET assay; assay type: biochemical; settings: read-out: IC50 IP (μM) CatD
Summary of the method: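 Cleavage of a 20 nM fluorophore/quencher peptide by CHO-expressed recombinant Cat D proceeded for one hour at pH 3.5 (0.05 M citrate, 5 mM CHAPS, 10% DMSO final). Tris addition neutralized the pH to end the reaction. Fluorescence was then measured (ex 500 nm/em 580 nm).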

Sequence of human recombinant BACE2 (Q9Y5Z0 63-518): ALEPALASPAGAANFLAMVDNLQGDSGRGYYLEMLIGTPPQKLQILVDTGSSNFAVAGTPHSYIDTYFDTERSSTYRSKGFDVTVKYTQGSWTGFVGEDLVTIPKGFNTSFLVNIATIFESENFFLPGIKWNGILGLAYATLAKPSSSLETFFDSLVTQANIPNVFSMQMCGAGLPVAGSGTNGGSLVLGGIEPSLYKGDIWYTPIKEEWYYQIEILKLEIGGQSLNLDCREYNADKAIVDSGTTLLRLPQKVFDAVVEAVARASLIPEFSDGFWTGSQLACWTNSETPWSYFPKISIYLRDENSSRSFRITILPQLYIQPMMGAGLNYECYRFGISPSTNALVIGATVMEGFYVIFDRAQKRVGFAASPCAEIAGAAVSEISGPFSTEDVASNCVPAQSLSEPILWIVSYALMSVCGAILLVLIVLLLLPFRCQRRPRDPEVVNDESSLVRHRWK
Sequence of human recombinant BACE1 (P56817 46-501): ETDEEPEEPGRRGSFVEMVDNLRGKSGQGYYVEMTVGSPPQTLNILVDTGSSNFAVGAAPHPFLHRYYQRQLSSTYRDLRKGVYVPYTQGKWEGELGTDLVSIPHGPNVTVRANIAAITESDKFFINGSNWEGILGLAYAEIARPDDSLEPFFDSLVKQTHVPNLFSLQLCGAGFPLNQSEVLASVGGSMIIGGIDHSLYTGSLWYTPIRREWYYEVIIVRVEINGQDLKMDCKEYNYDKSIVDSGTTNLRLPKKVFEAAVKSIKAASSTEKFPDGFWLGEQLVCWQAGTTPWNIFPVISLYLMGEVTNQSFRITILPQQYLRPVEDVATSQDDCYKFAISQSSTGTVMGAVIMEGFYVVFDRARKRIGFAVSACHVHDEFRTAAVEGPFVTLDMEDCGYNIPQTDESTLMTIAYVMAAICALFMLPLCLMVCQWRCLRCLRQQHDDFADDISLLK
Sequence of Recombinant Cat D (P07339 65-412): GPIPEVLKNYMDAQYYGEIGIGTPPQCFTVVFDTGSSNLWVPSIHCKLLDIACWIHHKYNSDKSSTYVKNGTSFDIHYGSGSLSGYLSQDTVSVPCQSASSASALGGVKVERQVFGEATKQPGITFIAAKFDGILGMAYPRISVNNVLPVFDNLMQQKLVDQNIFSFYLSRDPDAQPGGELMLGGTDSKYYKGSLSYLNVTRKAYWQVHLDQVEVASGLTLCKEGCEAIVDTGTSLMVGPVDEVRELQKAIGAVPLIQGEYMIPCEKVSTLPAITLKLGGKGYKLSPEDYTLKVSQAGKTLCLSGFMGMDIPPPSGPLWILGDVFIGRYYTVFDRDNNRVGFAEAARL

| Structure (SMILES) | IC50 [1] [nM] | IC50 [2] [µM] | IC50 [3] [µM] | IC50 [4] [µM] |
| --- | --- | --- | --- | --- |
| C#CCOc1cnc(C(=O)Nc2ccc(F)c([C@@]3(CF)N=C(N)S[C@@]4(COC(C)C)C[C@H]43)c2)cn1 [Example 955, N-(3-((1S,5S,6S)-3-amino-5-(fluoromethyl)-1-((1-methylethoxy)methyl)-2-thia-4-azabicyclo[4.1.0]hept-3-en-5-yl)-4-fluorophenyl)-5-(2-propyn-1-yloxy)-2-pyrazinecarboxamide] | 0.805 | 0.0501 | 0.00178 | 48 |
| NC1=N[C@](CF)(c2cc(NC(=O)c3ccc(Cl)cn3)ccc2F)[C@@H]2C[C@]2(c2c[nH]nn2)S1 [Example 956, N-(3-((1S,5S,6S)-3-amino-5-(fluoromethyl)-1-(1H-1,2,3-triazol-4-yl)-2-thia-4-azabicyclo[4.1.0]hept-3-en-5-yl)-4-fluorophenyl)-5-chloro-2-pyridinecarboxamide] | 0.927 | < 0.00203 | 0.019 | 341 |
| CC#C[C@]12C[C@H]1[C@@](CF)(c1cc(Nc3nccc4nc(OCc5ncco5)cnc34)ccc1F)N=C(N)S2 [Example 958, N-(3-((1S,5S,6S)-3-amino-5-(fluoromethyl)-1-(1-propyn-1-yl)-2-thia-4-azabicyclo[4.1.0]hept-3-en-5-yl)-4-fluorophenyl)-2-(1,3-oxazol-2-ylmethoxy)pyrido[3,4-b]pyrazin-5-amine] | 1.2 | 0.0662 | 0.04 | 354 |
| C#CCOc1cnc(C(=O)Nc2ccc(F)c([C@@]3(CF)N=C(N)S[C@@]4(c5c[nH]nn5)C[C@@H]34)c2)cn1 [Example 959, N-(3-((1S,5S,6S)-3-amino-5-(fluoromethyl)-1-(1H-1,2,3-triazol-4-yl)-2-thia-4-azabicyclo[4.1.0]hept-3-en-5-yl)-4-fluorophenyl)-5-(2-propyn-1-yloxy)-2-pyrazinecarboxamide] | 0.0901 | < 0.00203 | 0.00152 | 44.1 |
| C#CCOc1cnc2c(Nc3ccc(F)c([C@@]4(CF)N=C(N)S[C@@]5(c6c[nH]nn6)C[C@@H]45)c3)nccc2n1 [Example 960, N-(3-((1S,5S,6S)-3-amino-5-(fluoromethyl)-1-(1H-1,2,3-triazol-4-yl)-2-thia-4-azabicyclo[4.1.0]hept-3-en-5-yl)-4-fluorophenyl)-2-(2-propyn-1-yloxy)pyrido[3,4-b]pyrazin-5-amine] | 0.507 | 0.00422 | 0.00624 | > 400 |
| C[C@]1(c2cc(Nc3ncnc4cc(C#N)cnc34)ccc2F)N=C(N)S[C@@]2(CO)[C@@H]1C2(F)F [Example 961, 4-((3-((1R,5S,6S)-3-amino-7,7-difluoro-1-(hydroxymethyl)-5-methyl-2-thia-4-azabicyclo[4.1.0]hept-3-en-5-yl)-4-fluorophenyl)amino)pyrido[3,2-d]pyrimidine-7-carbonitrile] | 12 | 0.0223 | 0.0214 | 171 |
| NC1=N[C@](CF)(c2cc(NC(=O)c3ccc(Cl)cn3)ccc2F)[C@H]2C3CSC[C@@]32S1 (stereo partly drawn) [Example 962, N-(3-((4S,4aR,7aS)-2-amino-4-(fluoromethyl)-4a,4b,5,7-tetrahydro-4H-thieno[3′,4′:2,3]cyclopropa[1,2-e][1,3]thiazin-4-yl)-4-fluorophenyl)-5-chloropicolinamide] | 10 | 0.0199 | 0.104 | 21 |
| CNC(=O)[C@]12C[C@H]1[C@@](C)(c1cc(NC(=O)c3cnc(OCC(F)(F)C(F)F)cn3)cc(F)c1F)N=C(N)S2 [Example 963, (1S,5S,6S)-3-amino-5-(2,3-difluoro-5-(((5-(2,2,3,3-tetrafluoropropoxy)-2-pyrazinyl)carbonyl)amino)phenyl)-N,5-dimethyl-2-thia-4-azabicyclo[4.1.0]hept-3-ene-1-carboxamide] | 0.194 | 0.0631 | 0.0026 | 267 |
| C#CCOc1cnc(C(=O)Nc2cnc(OC)c([C@@]3(C)N=C(N)S[C@@]4(C#N)C[C@H]43)c2)cn1 [Example 964, N-(5-((1S,5S,6S)-3-amino-1-cyano-5-methyl-2-thia-4-azabicyclo[4.1.0]hept-3-en-5-yl)-6-methoxy-3-pyridinyl)-5-(2-propyn-1-yloxy)-2-pyrazinecarboxamide] | 0.737 | 0.00887 | 0.00154 | 98.9 |
| C#C[C@H](C)Oc1cnc(C(=O)Nc2cc(F)c(F)c([C@@]3(C)N=C(N)S[C@@]4(C(=O)NC)C[C@H]43)c2)cn1 [Example 967, (1S,5S,6S)-3-amino-5-(2,3-difluoro-5-(((5-(((1S)-1-methyl-2-propyn-1-yl)oxy)-2-pyrazinyl)carbonyl)amino)phenyl)-N,5-dimethyl-2-thia-4-azabicyclo[4.1.0]hept-3-ene-1-carboxamide] | 0.11 | 0.0149 | 0.000539 | 269 |
| COC[C@H](C)Oc1cnc(C(=O)Nc2ccc(F)c([C@@]3(C)N=C(N)S[C@@]4(COC)C[C@H]43)c2)cn1 [Example 970, N-(3-((1S,5S,6S)-3-amino-1-(methoxymethyl)-5-methyl-2-thia-4-azabicyclo[4.1.0]hept-3-en-5-yl)-4-fluorophenyl)-5-((1S)-2-methoxy-1-methylethoxy)-2-pyrazinecarboxamide] | 8.5 | 0.333 | 0.021 | > 400 |
| COC[C@H](C)Oc1cnc(C(=O)Nc2ccc(F)c([C@@]3(C)N=C(N)S[C@@]4(C(F)F)C[C@@H]34)c2)cn1 [Example 971, N-(3-((1S,5S,6S)-3-amino-1-(difluoromethyl)-5-methyl-2-thia-4-azabicyclo[4.1.0]hept-3-en-5-yl)-4-fluorophenyl)-5-((1S)-2-methoxy-1-methylethoxy)-2-pyrazinecarboxamide] | 5.22 | 0.38 | 0.0185 | 611 |
| C[C@]1(c2cc(NC(=O)c3cnc(OCC(F)(F)F)cn3)ccc2F)N=C(N)S[C@@]2(C(=O)NCC(F)(F)F)C[C@H]21 [Example 972, (1S,5S,6S)-3-amino-5-(2-fluoro-5-(5-(2,2,2-trifluoroethoxy)pyrazine-2-carboxamido)phenyl)-5-methyl-N-(2,2,2-trifluoroethyl)-2-thia-4-azabicyclo[4.1.0]hept-3-ene-1-carboxamide] | 0.454 | 0.0794 | 0.00455 | 138 |
| CNC(=O)[C@]12C[C@H]1[C@@](C)(c1cc(NC(=O)c3cnc(OCC(F)(F)F)cn3)ccc1F)N=C(N)S2 [Example 973, (1S,5S,6S)-3-amino-5-(2-fluoro-5-(5-(2,2,2-trifluoroethoxy)pyrazine-2-carboxamido)phenyl)-N,5-dimethyl-2-thia-4-azabicyclo[4.1.0]hept-3-ene-1-carboxamide] | 0.404 | 0.0476 | 0.00192 | 1570 |
| CC(C)[C@H](C)NC(=O)[C@]12C[C@H]1[C@@](C)(c1cc(NC(=O)c3cnc(OCC(F)(F)F)cn3)ccc1F)N=C(N)S2 [Example 974, (1S,5S,6S)-3-amino-5-(2-fluoro-5-(5-(2,2,2-trifluoroethoxy)pyrazine-2-carboxamido)phenyl)-5-methyl-N—((S)-3-methylbutan-2-yl)-2-thia-4-azabicyclo[4.1.0]hept-3-ene-1-carboxamide] | 1.32 | 0.014 | 0.00257 | 14.5 |
| C#CCOc1cnc(C(=O)Nc2cc(F)c(F)c([C@@]3(C)N=C(N)S[C@@]4(C(=O)OC)C[C@H]43)c2)cn1 [Example 975, methyl (1S,5S,6S)-3-amino-5-(2,3-difluoro-5-(((5-(2-propyn-1-yloxy)-2-pyrazinyl)carbonyl)amino)phenyl)-5-methyl-2-thia-4-azabicyclo[4.1.0]hept-3-ene-1-carboxylate] | 0.565 | 0.0562 | 0.00551 | 212 |
| CCNC(=O)[C@]12C[C@H]1[C@@](C)(c1cc(NC(=O)c3cnc(OCC(F)(F)F)cn3)ccc1F)N=C(N)S2 [Example 977, (1S,5S,6S)-3-amino-N-ethyl-5-(2-fluoro-5-(5-(2,2,2-trifluoroethoxy)pyrazine-2-carboxamido)phenyl)-5-methyl-2-thia-4-azabicyclo[4.1.0]hept-3-ene-1-carboxamide] | 0.782 | 0.0876 | 0.00439 | 577 |
| C#C[C@H](C)Oc1cnc(C(=O)Nc2ccc(F)c([C@@]3(C)N=C(N)S[C@@]4(C(=O)NC)C[C@H]43)c2)cn1 [Example 978, (1S,5S,6S)-3-amino-5-(5-(5-((S)-but-3-yn-2-yloxy)pyrazine-2-carboxamido)-2-fluorophenyl)-N,5-dimethyl-2-thia-4-azabicyclo[4.1.0]hept-3-ene-1-carboxamide] | 0.344 | 0.0195 | 0.000648 | > 400 |
| C#CCOc1cnc2c(Nc3ccc(F)c([C@@]4(C)N=C(N)S[C@@]5(C(=O)NC)C[C@H]54)c3)nccc2n1 [Example 979, (1S,5S,6S)-3-amino-5-(2-fluoro-5-((2-(2-propyn-1-yloxy)pyrido[3,4-b]pyrazin-5-yl)amino)phenyl)-N,5-dimethyl-2-thia-4-azabicyclo[4.1.0]hept-3-ene-1-carboxamide] | 0.315 | 0.0201 | 0.000859 | > 400 |

— patent US20160046618A1, “Cyclopropyl Fused Thiazin-2-Amine Compounds as Beta-Secretase Inhibitors and Methods of Use” (AMGEN INC., priority 2014, published 2016)
